Activity calls are given as the source filed them. The calls are words filed in the database; no cut-off is given here.
Assays:
[1] = tested on: Escherichia coli; assay: Antibacterial activity against Escherichia coli assessed as inhibition of protein synthesis after 60 mins by luminescence assay; assay type: functional, organism-based
[2] = tested on: Escherichia coli; assay: Antibacterial activity against Escherichia coli assessed as inhibition of protein synthesis at 0.1 to 0.4 uM after 60 mins by luminescence assay; assay type: functional, organism-based
[3] = tested on: Escherichia coli; assay: Antibacterial activity against Escherichia coli by NCCLS method; assay type: functional
[4] = tested on: Bacillus subtilis; assay: Antibacterial activity against Bacillus subtilis ATCC 6633 by NCCLS method; assay type: functional
[5] = tested on: Staphylococcus aureus; assay: Antibacterial activity against Staphylococcus aureus ATCC 6338 by NCCLS method; assay type: functional
[6] = Aqueous solubility of the compound; assay type: physicochemical; conditions: buffer
[7] = tested on: Escherichia coli; assay: Antibacterial activity against Escherichia coli by disk diffusion assay; assay type: functional
[8] = tested on: Staphylococcus aureus; assay: Antibacterial activity against Staphylococcus aureus ATCC 6338 by disk diffusion assay; assay type: functional
[9] = tested on: Bacillus subtilis; assay: Antibacterial activity against Bacillus subtilis ATCC 6633 by disk diffusion assay; assay type: functional
[10] = tested on: Escherichia coli; assay: Antibacterial activity against Escherichia coli assessed as inhibition of protein synthesis at 0.01 to 0.96 uM after 60 mins by luminescence assay; assay type: functional, organism-based

MIC [3] [µg/mL]	MIC [4] [µg/mL]	MIC [5] [µg/mL]	SMILES	inhibition [2]	other results
≥ 128	≤ 8	≤ 2	C=C(NC(=O)c1csc(C2=N[C@@H]3c4csc(n4)[C@H]4NC(=O)c5csc(n5)[C@H]([C@](C)(O)[C@H](C)O)NC(=O)[C@H]5CSC(=N5)/C(=C/C)NC(=O)[C@H]([C@@H](C)O)NC(=O)c5csc(n5)[C@]3(CC2)NC(=O)[C@H](C)NC(=O)C(=C)NC(=O)[C@H](C)NC(=O)[C@H]([C@@H](C)CC)N[C@@H]2C=Cc3c([C@H](C)O)cc(nc3[C@H]2O)C(=O)O[C@@H]4C)n1)C(=O)NC(CSCCS(=O)(=O)O)C(N)=O (stereo partly drawn)	Active	inhibition [1]: Dose-dependent effect; solubility [6]: Soluble
			C=C(NC(=O)c1csc(C2=N[C@@H]3c4csc(n4)[C@H]4NC(=O)c5csc(n5)[C@H]([C@](C)(O)[C@H](C)O)NC(=O)[C@H]5CSC(=N5)/C(=C/C)NC(=O)[C@H]([C@@H](C)O)NC(=O)c5csc(n5)[C@]3(CC2)NC(=O)[C@H](C)NC(=O)C(=C)NC(=O)[C@H](C)NC(=O)[C@H]([C@@H](C)CC)N[C@@H]2C=Cc3c([C@H](C)O)cc(nc3[C@H]2O)C(=O)O[C@@H]4C)n1)C(=O)NC(CS[C@@H]1O[C@H](CO)[C@@H](O)[C@H](O)[C@H]1O)C(N)=O (stereo partly drawn)		MIC [7]: ≥ 50 µg/mL; MIC [8]: ≥ 50 µg/mL; MIC [9]: ≥ 50 µg/mL
			C=C(NC(=O)c1csc(C2=N[C@@H]3c4csc(n4)[C@H]4NC(=O)c5csc(n5)[C@H]([C@](C)(O)[C@H](C)O)NC(=O)[C@H]5CSC(=N5)/C(=C/C)NC(=O)[C@H]([C@@H](C)O)NC(=O)c5csc(n5)[C@]3(CC2)NC(=O)[C@H](C)NC(=O)C(=C)NC(=O)[C@H](C)NC(=O)[C@H]([C@@H](C)CC)N[C@@H]2C=Cc3c([C@H](C)O)cc(nc3[C@H]2O)C(=O)O[C@@H]4C)n1)C(=O)NC(CSC[C@@H](C)C(=O)N1CCC[C@H]1C(=O)O)C(N)=O (stereo in doubt; 3)	Active	
≥ 128	≤ 32	≤ 32	C=C(NC(=O)c1csc(C2=N[C@@H]3c4csc(n4)[C@H]4NC(=O)c5csc(n5)[C@H]([C@](C)(O)[C@H](C)O)NC(=O)[C@H]5CSC(=N5)/C(=C/C)NC(=O)[C@H]([C@@H](C)O)NC(=O)c5csc(n5)[C@]3(CC2)NC(=O)[C@H](C)NC(=O)C(=C)NC(=O)[C@H](C)NC(=O)[C@H]([C@@H](C)CC)N[C@@H]2C=Cc3c([C@H](C)O)cc(nc3[C@H]2O)C(=O)O[C@@H]4C)n1)C(=O)NC(CSC[C@@H](C)C(=O)N1CCC[C@H]1C(=O)O)C(N)=O (stereo in doubt; 4) [listing 1 of 2 here]		
			C=C(NC(=O)c1csc(C2=N[C@@H]3c4csc(n4)[C@H]4NC(=O)c5csc(n5)[C@H]([C@](C)(O)[C@H](C)O)NC(=O)[C@H]5CSC(=N5)/C(=C/C)NC(=O)[C@H]([C@@H](C)O)NC(=O)c5csc(n5)[C@]3(CC2)NC(=O)[C@H](C)NC(=O)C(=C)NC(=O)[C@H](C)NC(=O)[C@H]([C@@H](C)CC)N[C@@H]2C=Cc3c([C@H](C)O)cc(nc3[C@H]2O)C(=O)O[C@@H]4C)n1)C(=O)NC(CSC[C@@H](C)C(=O)N1CCC[C@H]1C(=O)O)C(N)=O (stereo in doubt; 4) [listing 2 of 2 here]	Active	
≥ 32	≤ 0.25	≤ 0.0625	C=C(NC(=O)C(=C)NC(=O)c1csc(C2=N[C@@H]3c4csc(n4)[C@H]4NC(=O)c5csc(n5)[C@H]([C@](C)(O)[C@@H](C)O)NC(=O)[C@H]5CSC(=N5)/C(=C/C)NC(=O)[C@H]([C@@H](C)O)NC(=O)c5csc(n5)[C@]3(CC2)NC(=O)[C@H](C)NC(=O)C(=C)NC(=O)[C@H](C)NC(=O)[C@H]([C@@H](C)CC)N[C@@H]2C=Cc3c([C@H](C)O)cc(nc3[C@H]2O)C(=O)O[C@@H]4C)n1)C(N)=O [THIOSTREPTON]		inhibition [10]: Active

Source: ChEMBL document CHEMBL1165990, “Semi-synthetic analogues of thiostrepton delimit the critical nature of tail region modifications in the control of protein biosynthesis and antibacterial activity” (Bioorg Med Chem, 2010)
